Experiments:
Siglec-2 (CD22) = conditions: SAM for Siglec-2 (CD22); value of the cited reference; cited from earlier work
mouse CD22 = molecular target: T1, mouse CD22 (Mus musculus, UniProt P35329); test: SPR binding of synthetic Siglec ligands to mouse CD22 ectodomain (Biacore 8K+); conditions: for Kd: SPR, alkyne-terminating precursors of the PFP linkers, read-out: Mouse Siglec-2 Binding Affinity; for Mouse Siglec-2 Binding Affinity: grade in words for the conjugatable Siglec ligand-linker
T1 construct: synthetic Siglec ligands for recombinant human and mouse CD22 ectodomains
T1 sequence (P35329 22-708 limits assumed): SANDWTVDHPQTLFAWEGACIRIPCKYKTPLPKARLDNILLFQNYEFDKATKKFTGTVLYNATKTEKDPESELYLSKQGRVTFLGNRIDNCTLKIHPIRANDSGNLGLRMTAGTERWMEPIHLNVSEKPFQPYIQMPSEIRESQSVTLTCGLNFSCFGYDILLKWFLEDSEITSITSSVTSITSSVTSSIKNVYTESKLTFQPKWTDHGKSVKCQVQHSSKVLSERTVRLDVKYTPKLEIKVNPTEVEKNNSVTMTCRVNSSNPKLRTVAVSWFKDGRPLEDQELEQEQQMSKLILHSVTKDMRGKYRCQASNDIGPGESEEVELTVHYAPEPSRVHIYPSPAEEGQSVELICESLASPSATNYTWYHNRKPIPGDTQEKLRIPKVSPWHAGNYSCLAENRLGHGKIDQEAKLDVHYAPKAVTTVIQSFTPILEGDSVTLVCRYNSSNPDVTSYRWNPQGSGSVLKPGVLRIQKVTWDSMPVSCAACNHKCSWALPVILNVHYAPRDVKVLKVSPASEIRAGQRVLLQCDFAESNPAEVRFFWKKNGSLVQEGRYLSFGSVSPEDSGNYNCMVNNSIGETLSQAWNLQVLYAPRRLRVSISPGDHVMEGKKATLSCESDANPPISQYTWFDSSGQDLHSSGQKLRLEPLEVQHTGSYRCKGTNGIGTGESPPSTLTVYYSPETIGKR
Method: (§1) The following ligands were evaluated for mouse and human CD22 binding: 1) BPC-Neu5Gc PEG (Cpd. No. 26463), 2) BPC-Neu5Gc GAL (Cpd. No. 26339), 3) MPB-Neu5Ac PEG (Cpd. No. 26334), 4) MPB-Neu5Ac GAL (Cpd. No. 26409), 5) Neu5Gc PEG (Cpd. No. 26591). All tested compounds are alkyne-terminating precursors of PFP-terminating, conjugatable Siglec Linker structures used in conjugates in the following examples.
(§2) Binding assays for synthetic CD22 ligand binding to CD22 receptor ectodomain were run on a Biacore 8K+ instrument (Cytiva). Surface preparation for CD22 conjugates binding to human or mouse CD22 protein consisted of two steps, covalent immobilization of streptavidin followed by capture of Avi-tagged and biotinylated human CD22-Fc fusion (R&D Systems, Cat #AV11968-050) and a mono-Fc fusion of mouse CD22. Using standard amine coupling protocols, Streptavidin (Invitrogen, Cat #: 434301) was immobilized to a Cytiva CM5 chip (Cytiva, Cat #BR100530) by injecting at 100 ug/mL in Sodium Acetate, pH 4.5 (Cytiva, Cat #BR100350) on both flow cells, yielding a final response of 2500 RU. Capture of biotinylated mono Fc human CD22 was performed on channels 1-4 and mouse CD22 on channels 5-8 on the active flow cell (2) and the reference flow cell (1) was kept as unmodified streptavidin to account for any non-specific binding. Human CD22 or mouse CD22 (mono-Fc fusion, 5 μg/mL) was injected on the active flow cell (2) for 90 seconds at 5 μL/min, yielding about 210 RU of captured constructs.
(§3) Binding experiments of Siglec-ligand conjugated proteins were performed on the surfaces prepared above in HBS-EP+ (10 mM HEPES, 150 mM NaCl, 3 mM EDTA, 0.05% Tween-20, pH 7.5) as the running buffer. Conjugates were serially diluted 1:1 in running buffer from 1 μM to 31.25 nM and injected over both the reference and active flow cells for 90 seconds at 30 μL/min. The conjugates were then allowed to dissociate from the surface for 300 seconds. No regeneration was required as the conjugates completely dissociated from the surface after 30 seconds.

human CD22 = molecular target: T2, human CD22 (Homo sapiens, UniProt P20273); test: SPR binding of synthetic Siglec ligands to human CD22 ectodomain (Biacore 8K+); conditions: for Kd: SPR, alkyne-terminating precursors of the PFP linkers, read-out: Human Siglec-2 Binding Affinity; for Human Siglec-2 Binding Affinity: grade in words for the conjugatable Siglec ligand-linker
T2 construct: Fc (human CD22-Fc fusion); purchased R&D Systems AV11968-050
Method: as §1, §2, §3

T2 sequence (P20273 20-687 limits assumed): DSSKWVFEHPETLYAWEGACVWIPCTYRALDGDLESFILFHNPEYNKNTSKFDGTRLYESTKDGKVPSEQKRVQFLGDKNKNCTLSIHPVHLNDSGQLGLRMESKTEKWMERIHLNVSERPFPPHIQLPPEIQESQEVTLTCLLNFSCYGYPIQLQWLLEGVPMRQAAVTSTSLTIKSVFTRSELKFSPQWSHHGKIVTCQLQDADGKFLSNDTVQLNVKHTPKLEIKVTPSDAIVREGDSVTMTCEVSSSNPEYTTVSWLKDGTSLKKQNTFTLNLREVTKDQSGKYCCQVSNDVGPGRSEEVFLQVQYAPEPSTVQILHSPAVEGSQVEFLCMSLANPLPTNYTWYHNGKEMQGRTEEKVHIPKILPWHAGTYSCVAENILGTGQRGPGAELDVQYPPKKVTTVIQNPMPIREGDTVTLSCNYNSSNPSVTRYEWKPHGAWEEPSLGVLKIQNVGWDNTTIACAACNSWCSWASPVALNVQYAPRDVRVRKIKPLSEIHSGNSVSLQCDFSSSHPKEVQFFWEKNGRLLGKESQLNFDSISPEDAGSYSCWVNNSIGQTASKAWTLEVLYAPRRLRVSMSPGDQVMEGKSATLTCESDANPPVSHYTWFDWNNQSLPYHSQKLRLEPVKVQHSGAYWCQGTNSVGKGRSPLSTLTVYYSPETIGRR

Compound	Mouse Siglec-2 Binding Affinity (mouse CD22)	Human Siglec-2 Binding Affinity (human CD22)	also measured
CO[C@]1(C(=O)O)CC(O)[C@@H](NC(C)=O)C([C@H](O)[C@H](O)CNC(=O)c2ccc(-c3ccccc3)cc2)O1 (stereo partly shown)			IC50 (Siglec-2 (CD22)): 4000 nM
O=C(Cc1ccc(-c2ccc(O)cc2)cc1)NC[C@@H](O)C(O)C1O[C@@](OCc2cccc(Cl)c2Cl)(C(=O)O)CC(O)[C@H]1NS(=O)(=O)c1ccccc1[N+](=O)[O-] (stereo partly shown)			IC50 (Siglec-2 (CD22)): 60 nM
CO[C@]1(C(=O)O)CC(NS(=O)(=O)c2ccc(C)cc2)[C@@H](NC(C)=O)C([C@H](O)[C@H](O)CNC(=O)c2ccc(-c3ccccc3)cc2)O1 (stereo partly shown)			IC50 (Siglec-2 (CD22)): 150 nM
C#CCOCCOCCO[C@]1(C(=O)O)C[C@H](O)[C@@H](NC(=O)CO)[C@H]([C@H](O)[C@H](O)CNC(=O)Cc2ccc(-c3ccccc3)cc2)O1 [Cpd. No. 26463, (2R,4S,5R,6R)-6-((1R,2R)-3-(2-([1,1′-biphenyl]-4-yl)acetamido)-1,2-dihydroxypropyl)-4-hydroxy-5-(2-hydroxyacetamido)-2-(2-(2-(prop-2-yn-1-yloxy)ethoxy)ethoxy)tetrahydro-2H-pyran-2-carboxylic acid]			Kd (mouse CD22): 9600 nM; Kd (human CD22): 1300 nM
O=C(CCOCCOCCn1cc(COCCOCCO[C@]2(C(=O)O)C[C@H](O)[C@@H](NC(=O)CO)[C@H]([C@H](O)[C@H](O)CO)O2)nn1)NCCCC[C@@H](CN[C@@H](CCCCNC(=O)CCOCCOCCn1cc(COCCOCCO[C@]2(C(=O)O)C[C@H](O)[C@@H](NC(=O)CO)[C@H]([C@H](O)[C@H](O)CO)O2)nn1)C(=O)NCCOCCOCCOCCOCCC(=O)Oc1c(F)c(F)c(F)c(F)c1F)NC(=O)CCCNCCCOCCOCCn1cc(COCCOCCO[C@]2(C(=O)O)C[C@H](O)[C@@H](NC(=O)CO)[C@H]([C@H](O)[C@H](O)CO)O2)nn1 [Cpd. No. 26616]	Weak	Weak	
O=C(CCOCCOCCn1cc(COCCOCCOCCOCCO)nn1)NCCCC[C@@H](NC(=O)CCCNC(=O)CCOCCOCCn1cc(COCCOCCOCCOCCO)nn1)C(=O)NCCOCCOCCOCCOCCC(=O)Oc1c(F)c(F)c(F)c(F)c1F [Cpd. No. 26532, perfluorophenyl (R)-1-(4-(13-hydroxy-2,5,8,11-tetraoxatridecyl)-1H-1,2,3-triazol-1-yl)-16-(4-(3-(2-(2-(4-(13-hydroxy-2,5,8,11-tetraoxatridecyl)-1H-1,2,3-triazol-1-yl)ethoxy)ethoxy)propanamido)butyl)-9,14,17-trioxo-3,6,21,24,27,30-hexaoxa-10,15,18-triazatritriacontan-33-oate]	No Binding	No Binding	
CC(=O)N[C@H]1[C@H]([C@H](O)[C@H](O)CNC(=O)c2cccc(Oc3ccccc3)c2)O[C@@](OC[C@H]2O[C@@H](OCCc3cn(CCOCCOCCOCCOCCC(=O)Oc4c(F)c(F)c(F)c(F)c4F)nn3)[C@H](O)[C@@H](O)[C@H]2O)(C(=O)O)C[C@@H]1O [Cpd. No. 24906, (2R,4S,5R,6R)-5-acetamido-6-((1R,2R)-1,2-dihydroxy-3-(3-phenoxybenzamido)propyl)-4-hydroxy-2-(((2R,3R,4S,5R,6R)-3,4,5-trihydroxy-6-(2-(1-(15-oxo-15-(perfluorophenoxy)-3,6,9,12-tetraoxapentadecyl)-1H-1,2,3-triazol-4-yl)ethoxy)tetrahydro-2H-pyran-2-yl)methoxy)tetrahydro-2H-pyran-2-carboxylic acid]	V. weak	Strong	
C#CCCO[C@@H]1O[C@H](CO[C@]2(C(=O)O)C[C@H](O)[C@@H](NC(C)=O)[C@H]([C@H](O)[C@H](O)CNC(=O)c3cccc(Oc4ccccc4)c3)O2)[C@H](O)[C@H](O)[C@H]1O [Cpd. No. 26409, (2R,4S,5R,6R)-5-acetamido-2-(((2R,3R,4S,5R,6R)-6-(but-3-yn-1-yloxy)-3,4,5-trihydroxytetrahydro-2H-pyran-2-yl)methoxy)-6-((1R,2R)-1,2-dihydroxy-3-(3-phenoxybenzamido)propyl)-4-hydroxytetrahydro-2H-pyran-2-carboxylic acid]			Kd (mouse CD22): > 100000 nM; Kd (human CD22): 1000 nM
O=C(Cc1ccc(-c2ccccc2)cc1)NC[C@@H](O)[C@@H](O)[C@@H]1O[C@@](OC[C@H]2O[C@@H](OCCc3cn(CCOCCOCCOCCOCCC(=O)Oc4c(F)c(F)c(F)c(F)c4F)nn3)[C@H](O)[C@@H](O)[C@H]2O)(C(=O)O)C[C@H](O)[C@H]1NC(=O)CO [Cpd. No. 26415, (2R,4S,5R,6R)-6-((1R,2R)-3-(2-([1,1′-biphenyl]-4-yl)acetamido)-1,2-dihydroxypropyl)-4-hydroxy-5-(2-hydroxyacetamido)-2-(((2R,3R,4S,5R,6R)-3,4,5-trihydroxy-6-(2-(1-(15-oxo-15-(perfluorophenoxy)-3,6,9,12-tetraoxapentadecyl)-1H-1,2,3-triazol-4-yl)ethoxy)tetrahydro-2H-pyran-2-yl)methoxy)tetrahydro-2H-pyran-2-carboxylic acid]	Strong	Strong	
CC(=O)N[C@H]1[C@H]([C@H](O)[C@H](O)CNC(=O)c2cccc(Oc3ccccc3)c2)O[C@@](OCCOCc2cn(CCOCCOCCC(=O)NCCCC[C@H](NC(=O)CCCNC(=O)CCOCCOCCn3cc(COCCO[C@]4(C(=O)O)C[C@H](O)[C@@H](NC(C)=O)[C@H]([C@H](O)[C@H](O)CNC(=O)c5cccc(Oc6ccccc6)c5)O4)nn3)C(=O)NCCOCCOCCOCCOCCC(=O)Oc3c(F)c(F)c(F)c(F)c3F)nn2)(C(=O)O)C[C@@H]1O [Cpd. No. 26289, (2R,2′R,4S,4′S,5R,5′R,6R,6′R)-2,2′-(((((((S)-9,14,22-trioxo-16-((15-oxo-15-(perfluorophenoxy)-3,6,9,12-tetraoxapentadecyl)carbamoyl)-3,6,25,28-tetraoxa-10,15,21-triazatriacontane-1,30-diyl)bis(1H-1,2,3-triazole-1,4-diyl))bis(methylene))bis(oxy))bis(ethane-2,1-diyl))bis(oxy))bis(5-acetamido-6-((1R,2R)-1,2-dihydroxy-3-(3-phenoxybenzamido)propyl)-4-hydroxytetrahydro-2H-pyran-2-carboxylic acid)]	V. weak	Strong	
O=C(Cc1ccc(-c2ccccc2)cc1)NC[C@@H](O)[C@@H](O)[C@@H]1O[C@@](OCCOCCOCc2cn(CCOCCOCCOCCOCCC(=O)Oc3c(F)c(F)c(F)c(F)c3F)nn2)(C(=O)O)C[C@H](O)[C@H]1NC(=O)CO [Cpd. No. 26288, (2R,4S,5R,6R)-6-((1R,2R)-3-(2-([1,1′-biphenyl]-4-yl)acetamido)-1,2-dihydroxypropyl)-4-hydroxy-5-(2-hydroxyacetamido)-2-(2-(2-((1-(15-oxo-15-(perfluorophenoxy)-3,6,9,12-tetraoxapentadecyl)-1H-1,2,3-triazol-4-yl)methoxy)ethoxy)ethoxy)tetrahydro-2H-pyran-2-carboxylic acid]	Strong	Strong	

— US20240238422A1 (Osprey Biopharmaceuticals, Inc., priority 2021, published 2024)
